Data on 18 molecules can be found in ChEMBL document CHEMBL5352433, “Design, synthesis, and biological evaluation of low-toxic lappaconitine derivatives as potential analgesics” (Eur J Med Chem, 2022).

The structures appear in SMILES notation. Where only a bound is given, the exact number is not on record here.

Series [1] deals with T1, Voltage-gated inwardly rectifying potassium channel KCNH2 (Homo sapiens, UniProt Q12809). Briefly: Inhibition of hERG expressed in HEK cells assessed as Rb+ efflux ratio at 10 mg/L incubated for 4 mins (reference value: 79.71 to 94.98 %). It counts as toxicity, cell-based. Details: scale not given: the % may be the effect or the level left. The note with it: at 10 µg/mL. A general note: hERG is a cardiac potassium channel; its block is linked to QT prolongation.

In series [2] the target is T1, Voltage-gated inwardly rectifying potassium channel KCNH2. Briefly: Inhibition of hERG expressed in HEK cells assessed as Rb+ efflux ratio at 1 mg/L incubated for 4 mins (reference value: 79.71 to 94.98 %). It counts as toxicity, cell-based. Details: scale not given: the % may be the effect or the level left. The following applies: at 1 µg/mL.
Series [3] has the same target. The experiment in a line: Inhibition of hERG expressed in HEK cells assessed as Rb+ efflux ratio at 100 mg/L incubated for 4 mins (reference value: 79.71 to 94.98 %). It counts as toxicity, cell-based. Details: scale not given: the % may be the effect or the level left. The note with it: at 100 µg/mL.
In series [4] the test system is Mus musculus. Briefly: Analgesic activity against acetic acid-induced Kunming writhing mouse model assessed as inhibition of writhing at 3.5 mg/kg, sc pretreated with compound for 15 mins followed by acetic acid addition and measured after 15 mins relative to control. It counts as functional. The following applies: 0.5 h, time 30 min. (Writhing tests count abdominal constrictions after an irritant is injected.)

For series [5], the system named is Mus musculus. Briefly: Analgesic activity against sc dosed acetic acid-induced Kunming writhing mouse model assessed as inhibition of writhing pretreated with compound for 15 mins followed by acetic acid addition and measured after 15 mins. It counts as functional. The following applies: 0.5 h, time 30 min.
Series [6] is described as follows: Acute toxicity in sc dosed Kunming mouse assessed as mortality rate measured after 24 hrs. It counts as organism-based. The following applies: in vivo.
For series [7], the system named is Mus musculus. The experiment in a line: Analgesic activity against acetic acid-induced Kunming writhing mouse model assessed as inhibition of writhing at 10 mg/kg, sc pretreated with compound for 15 mins followed by acetic acid addition and measured after 15 mins relative to control. It counts as functional. The note with it: 0.5 h, time 30 min.
A short description of series [8]: Therapeutic index, ratio of LD50 for acute toxicity in sc dosed Kunming mouse to ratio of ED50 for analgesic activity against sc dosed acetic acid-induced Kunming writhing mouse model. It counts as organism-based. The following applies: in vivo, read-out: TI.
A short description of series [9]: Drug metabolism in sc dosed acetic acid-induced Kunming writhing mouse model assessed as metabolites in feces. It counts as ADME, organism-based. The following applies: in vivo.
Series [10] can be described thus: Drug metabolism in sc dosed acetic acid-induced Kunming writhing mouse model assessed as metabolites in urine. It counts as ADME, organism-based. The note with it: in vivo.

T1 sequence (Q12809 whole entry): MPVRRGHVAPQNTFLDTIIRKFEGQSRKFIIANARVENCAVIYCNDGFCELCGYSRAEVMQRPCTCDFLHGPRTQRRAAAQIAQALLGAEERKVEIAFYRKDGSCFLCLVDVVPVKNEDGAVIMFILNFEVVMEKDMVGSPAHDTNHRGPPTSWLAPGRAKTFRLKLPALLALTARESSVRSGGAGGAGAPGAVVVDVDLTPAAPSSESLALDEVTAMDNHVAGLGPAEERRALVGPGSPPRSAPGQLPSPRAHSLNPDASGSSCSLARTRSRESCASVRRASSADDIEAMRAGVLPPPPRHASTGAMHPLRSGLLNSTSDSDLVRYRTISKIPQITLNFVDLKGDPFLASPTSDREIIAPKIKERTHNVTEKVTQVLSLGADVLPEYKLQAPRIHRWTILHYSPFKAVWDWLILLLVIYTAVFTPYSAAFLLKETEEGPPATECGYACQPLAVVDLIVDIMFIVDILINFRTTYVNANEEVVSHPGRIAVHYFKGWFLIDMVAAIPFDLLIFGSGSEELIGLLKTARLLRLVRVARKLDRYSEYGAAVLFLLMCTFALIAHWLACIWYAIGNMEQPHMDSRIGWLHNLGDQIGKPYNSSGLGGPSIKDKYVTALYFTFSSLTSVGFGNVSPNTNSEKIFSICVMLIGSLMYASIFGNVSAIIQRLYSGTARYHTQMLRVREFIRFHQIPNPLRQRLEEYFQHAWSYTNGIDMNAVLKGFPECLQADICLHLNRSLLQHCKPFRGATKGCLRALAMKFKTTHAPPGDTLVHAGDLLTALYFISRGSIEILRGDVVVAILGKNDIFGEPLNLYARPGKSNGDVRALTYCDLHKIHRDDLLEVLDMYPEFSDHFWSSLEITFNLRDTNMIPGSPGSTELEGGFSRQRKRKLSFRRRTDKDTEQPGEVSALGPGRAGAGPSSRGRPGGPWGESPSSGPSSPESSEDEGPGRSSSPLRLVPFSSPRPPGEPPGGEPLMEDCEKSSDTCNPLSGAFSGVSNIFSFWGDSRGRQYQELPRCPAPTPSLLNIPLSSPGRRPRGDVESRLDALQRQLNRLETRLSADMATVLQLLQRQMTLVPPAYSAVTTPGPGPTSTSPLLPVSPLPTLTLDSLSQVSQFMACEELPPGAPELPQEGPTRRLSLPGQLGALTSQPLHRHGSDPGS

Take `CCN1C[C@]2(OC(=O)c3ccccc3N)CC[C@H](OC)[C@]34C1[C@H](C[C@H]23)[C@@]1(O)C[C@H](OC)[C@H]2C[C@@H]4[C@]1(O)[C@H]2OC`: the Activity in series [1] came to 92.35%; in [2] it was 96.05%; in [3] it was 65.7%.

In the case of `CCN1C[C@]2(OC(=O)c3ccccc3NC(C)=O)CC[C@H](OC)[C@]34C1[C@H](C[C@H]23)[C@@]1(O)C[C@H](OC)[C@H]2C[C@@H]4[C@]1(O)[C@H]2OC`, the inhibition in vivo at 3.5 mg/kg with Mus musculus [4] was found to be 56.6%. Also, in the series on Mus musculus [5], the ED50 came out at 3.5 mg/kg. In addition, the LD50 at 24 h in [6] came to 11.7 mg/kg.

Turning to `CCN1C[C@]2(OC(=O)c3ccccc3NC(=O)c3ccc(OC(C)C)cc3)CC[C@H](OC)[C@]34C1[C@H](C[C@H]23)[C@@]1(O)C[C@H](OC)[C@H]2C[C@@H]4[C@]1(O)[C@H]2OC`, the inhibition in vivo at 10 mg/kg with Mus musculus [7] worked out at 51.1%. Further, in the series on Mus musculus [5], the ED50 was 8.1 mg/kg. For the same molecule, the selectivity ratio in [8] amounted to 24.2. The LD50 at 24 h in [6] stood at 196 mg/kg.

Take `CCN1C[C@]2(OC(=O)c3ccccc3NS(=O)(=O)c3ccccc3OC)CC[C@H](OC)[C@]34C1[C@H](C[C@H]23)[C@@]1(O)C[C@H](OC)[C@H]2C[C@@H]4[C@]1(O)[C@H]2OC`: in the series on Mus musculus [7], the inhibition in vivo at 10 mg/kg turned out to be 71.2%. Also, in the series on Mus musculus [5], the ED50 is 5.5 mg/kg. The selectivity ratio in series [8] was 54.5. For the same molecule, the Drug metabolism result in series [9] and in [10] was “Metabolite_Detected” each time. Moreover, the Activity in series [1] came to 65.13%; in [2] it was 80.88%; in series [3] it was 50.83%. Also, the LD50 at 24 h in series [6] is 300 mg/kg.

Consider `CCN1C[C@]2(OC(=O)c3ccccc3NS(=O)(=O)c3cccc4cccnc34)CC[C@H](OC)[C@]34C1[C@H](C[C@H]23)[C@@]1(O)C[C@H](OC)[C@H]2C[C@@H]4[C@]1(O)[C@H]2OC`, for which the inhibition in vivo at 10 mg/kg in the series on Mus musculus [7] stood at 42.4%.

Turning to `CCN1C[C@]2(OC(=O)c3ccccc3NS(=O)(=O)c3ccccc3)CC[C@H](OC)[C@]34C1[C@H](C[C@H]23)[C@@]1(O)C[C@H](OC)[C@H]2C[C@@H]4[C@]1(O)[C@H]2OC`, in the series with Mus musculus [7], the inhibition in vivo at 10 mg/kg turned out to be 84.3%. Moreover, the ED50 with Mus musculus [5] amounted to 6.1 mg/kg. Besides, the selectivity ratio in series [8] was above 98.3. In addition, the Drug metabolism result in series [9] and in series [10] was “Metabolite_Detected” in each case. The Activity turned out to be 72.11% in series [1], 88.87% in [2] and 44.12% in series [3]. The 50% lethal dose (LD50) at 24 h in [6] was above 600 mg/kg.

As for `CCN1C[C@]2(OC(=O)c3ccccc3NS(=O)(=O)c3cccnc3)CC[C@H](OC)[C@]34C1[C@H](C[C@H]23)[C@@]1(O)C[C@H](OC)[C@H]2C[C@@H]4[C@]1(O)[C@H]2OC`, the inhibition in vivo at 10 mg/kg in the series with Mus musculus [7] was determined as 32.3%.

On to `CCN1C[C@]2(OC(=O)c3ccccc3NC(=O)C3CC3)CC[C@H](OC)[C@]34C1[C@H](C[C@H]23)[C@@]1(O)C[C@H](OC)[C@H]2C[C@@H]4[C@]1(O)[C@H]2OC`, for which the inhibition in vivo at 3.5 mg/kg with Mus musculus [4] came out at 33.5%.

Take `CCN1C[C@]2(OC(=O)c3ccccc3NS(=O)(=O)c3cccc4ccccc34)CC[C@H](OC)[C@]34C1[C@H](C[C@H]23)[C@@]1(O)C[C@H](OC)[C@H]2C[C@@H]4[C@]1(O)[C@H]2OC`: the inhibition in vivo at 10 mg/kg in the series on Mus musculus [7] is 49.3%.

As for `CCN1C[C@]2(OC(=O)c3ccccc3NC(=O)CC(C)(C)C)CC[C@H](OC)[C@]34C1[C@H](C[C@H]23)[C@@]1(O)C[C@H](OC)[C@H]2C[C@@H]4[C@]1(O)[C@H]2OC`, in the series on Mus musculus [4], the inhibition in vivo at 3.5 mg/kg came out at 24.9%.

Take `CCN1C[C@]2(OC(=O)c3ccccc3NS(=O)(=O)c3cccc4c(N(C)C)cccc34)CC[C@H](OC)[C@]34C1[C@H](C[C@H]23)[C@@]1(O)C[C@H](OC)[C@H]2C[C@@H]4[C@]1(O)[C@H]2OC`: in the series with Mus musculus [7], the inhibition in vivo at 10 mg/kg came to 42.5%.

With `C/C=C/C(=O)Nc1ccccc1C(=O)O[C@@]12CC[C@H](OC)[C@]34C([C@H](C[C@H]13)[C@@]1(O)C[C@H](OC)[C@H]3C[C@@H]4[C@]1(O)[C@H]3OC)N(CC)C2`, the inhibition in vivo at 3.5 mg/kg in the series on Mus musculus [4] came out at 24.4%.

In the case of `CCN1C[C@]2(OC(=O)c3ccccc3NC(=O)c3ccc(OC)cc3)CC[C@H](OC)[C@]34C1[C@H](C[C@H]23)[C@@]1(O)C[C@H](OC)[C@H]2C[C@@H]4[C@]1(O)[C@H]2OC`, in the series on Mus musculus [7], the inhibition in vivo at 10 mg/kg was found to be 62.8%. Also, in the series with Mus musculus [5], the ED50 is 4.4 mg/kg. In addition, the selectivity ratio in series [8] stood at 67.4. Also, the Activity in series [1] was 76.58%; in [2], 77%; in series [3], 69.69%. The LD50 at 24 h in [6] amounted to 296 mg/kg.

`CCN1C[C@]2(OC(=O)c3ccccc3NS(=O)(=O)c3ccc4ccccc4c3)CC[C@H](OC)[C@]34C1[C@H](C[C@H]23)[C@@]1(O)C[C@H](OC)[C@H]2C[C@@H]4[C@]1(O)[C@H]2OC`: in the series on Mus musculus [7], the inhibition in vivo at 10 mg/kg was determined as 28.4%.

Regarding `CCOc1ccc(C(=O)Nc2ccccc2C(=O)O[C@@]23CC[C@H](OC)[C@]45C([C@H](C[C@H]24)[C@@]2(O)C[C@H](OC)[C@H]4C[C@@H]5[C@]2(O)[C@H]4OC)N(CC)C3)cc1`, the inhibition in vivo at 10 mg/kg in the series with Mus musculus [7] is 62.8%. For the same molecule, in the series with Mus musculus [5], the ED50 turned out to be 6.6 mg/kg. In addition, the selectivity ratio in series [8] turned out to be 47.7. The Activity in series [1] is recorded as 80.07%; in series [2], 79.38%; in [3] it was 76.45%. In [6], the LD50 at 24 h was determined as 315 mg/kg.

For the molecule `CCCOc1ccc(C(=O)Nc2ccccc2C(=O)O[C@@]23CC[C@H](OC)[C@]45C([C@H](C[C@H]24)[C@@]2(O)C[C@H](OC)[C@H]4C[C@@H]5[C@]2(O)[C@H]4OC)N(CC)C3)cc1`, the inhibition in vivo at 10 mg/kg with Mus musculus [7] was found to be 48.4%. Moreover, the ED50 with Mus musculus [5] came to 10.2 mg/kg. The selectivity ratio in series [8] was 20.9. Besides, in series [6], the LD50 at 24 h was found to be 214 mg/kg.

Regarding `CCN1C[C@]2(OC(=O)c3ccccc3NC(=O)c3ccc(N(C)C)cc3)CC[C@H](OC)[C@]34C1[C@H](C[C@H]23)[C@@]1(O)C[C@H](OC)[C@H]2C[C@@H]4[C@]1(O)[C@H]2OC`, the inhibition in vivo at 10 mg/kg with Mus musculus [7] stood at 62.1%. Further, the ED50 in the series on Mus musculus [5] is 6.2 mg/kg. Also, the selectivity ratio in [8] is 48.5. Further, the Drug metabolism entry in series [9] and in series [10] was “Metabolite_Detected” each time. Besides, the figures for the Activity in [1], in series [2] and in series [3] were 85.86%, 87.34% and 84.7%, respectively. For the same molecule, in series [6], the LD50 at 24 h came to 300 mg/kg.

On to `CCN1C[C@]2(OC(=O)c3ccccc3NS(=O)(=O)c3ccccn3)CC[C@H](OC)[C@]34C1[C@H](C[C@H]23)[C@@]1(O)C[C@H](OC)[C@H]2C[C@@H]4[C@]1(O)[C@H]2OC`, for which, in the series with Mus musculus [7], the inhibition in vivo at 10 mg/kg was determined as 71.2%. In addition, the ED50 with Mus musculus [5] amounted to 4.7 mg/kg. In series [8], the selectivity ratio was above 85.1. Further, the Drug metabolism result in series [9] and in [10] was “Metabolite_Detected” throughout. In addition, the Activity worked out at 88.42% in series [1], 95.97% in [2] and 73.6% in [3]. In addition, the LD50 at 24 h in [6] is above 400 mg/kg.

By inhibition in vivo is commonly meant the change of the read-out against control, counted positive when it falls. One may read the ED50 as the midpoint of the dose-response relation. By LD50 is commonly meant the dose expected to kill half of the subjects tested.
